Reference: patent US6358883B1, “Pesticidal and parasiticidal use of 1-aryl-1-(substituted thio, sulfinyl and sulfonyl)-2-nitroethane compounds” (American Cyanamid Company, priority 1998, dated 2002)

Columns and labels:
Type in all cases: in vivo
[1] = test system: Spodoptera eridania, 2nd instar larvae, southern armyworm (SAW); experiment: Southern armyworm (SAW) leaf dip test; set-up: key: 0 = no effect; 1 = 10-25% kill; 2 = 26-35% kill; 3 = 36-45% kill; 4 = 46-55% kill; 5 = 56-65% kill; 6 = 66-75% kill; 7 = 76-85% kill; 8 = 86-99% kill; 9 = 100% kill
Summary of the method: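 Ten 2nd instar caterpillars feed on a Sieva lima bean leaf that was dipped 3 seconds in test solution (stock 10,000 ppm in 35% acetone/water, water-diluted). Five days later, larvae are assessed for death, feeding reduction or abnormal molting.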

[2] = test system: Tetranychus urticae (OP-resistant strain), 2-spotted spider mite (TSM); experiment: 2-spotted spider mite (TSM) plant dip test; set-up: key: 0 = no effect; 1 = 10-25% kill; 2 = 26-35% kill; 3 = 36-45% kill; 4 = 46-55% kill; 5 = 56-65% kill; 6 = 66-75% kill; 7 = 76-85% kill; 8 = 86-99% kill; 9 = 100% kill; conditions: mortality after 2 days
Summary of the method: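 Mortality counted 2 days after a 3 s agitated dip of infested Sieva lima bean plants. Compound came from a 10,000 ppm stock in 35% aqueous acetone, with further dilution in water. Each primary leaf carried about 100 OP-resistant mites, allowed to settle ~2 h before dipping.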

[3] = test system: Diabrotica undecimpunctata howardi, eggs-southern corn rootworm (SCR-Eggs); experiment: Southern corn rootworm eggs (SCR-Eggs) treated diet test; set-up: key: 0 = no effect; 1 = 10-25% kill; 2 = 26-35% kill; 3 = 36-45% kill; 4 = 46-55% kill; 5 = 56-65% kill; 6 = 66-75% kill; 7 = 76-85% kill; 8 = 86-99% kill; 9 = 100% kill; conditions: mortality after 7 days
Summary of the method: (§1)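 Eggs of S. eridania or D. undecimpunctata howardi were set on artificial diet pretreated with test solution (10,000 ppm stock in 35% aqueous acetone, water dilutions) and dried. Wells were sealed with vented clear covers, and mortality was scored at day 7.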

[4] = test system: Diabrotica virgifera virgifera Leconte, 2nd instar western corn rootworm (WCR); experiment: Western corn rootworm (WCR) soil test; set-up: key: 0 = no effect; 1 = 10-25% kill; 2 = 26-35% kill; 3 = 36-45% kill; 4 = 46-55% kill; 5 = 56-65% kill; 6 = 66-75% kill; 7 = 76-85% kill; 8 = 86-99% kill; 9 = 100% kill
Summary of the method: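 Ten 2nd-instar rootworm larvae are placed in jars of moist soil with millet seed and talc treated with 1.25 mg active ingredient (roughly 50 kg/ha) from a 35% acetone-in-water solution. After 5 days mortality is scored, counting missing larvae as dead.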

[5] = test system: C. elegans (Bristol strain); experiment: Evaluation of test compounds against C. elegans (motility, 96-well plate); set-up: key: 9=complete kill in 4 hours; 8=complete kill in 24 hours; 7=markedly reduced motility in approximately 95% of worms in 24 hours; 0=normal motility, same as controls; conditions: motility at 4 and 24 hours
Summary of the method: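 Activity is a semi-quantitative visual score of adult and larval movement, read at 4 h and 24 h post-immersion at 20 °C after gentle tapping. Worms were suspended in Na buffer in wells where compound, dissolved in 80% acetone, had been evaporated.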

[6] = test system: M. incognita (Root Knot Nematode) larvae; experiment: Evaluation of test compounds against M. incognita larvae in microtiter plate wells (movement score); conditions: larvae scored for movement after 20-24 hours; further: key: A score of '9' indicates inactive worms with a straight, sticklike morphology; A score of '8' indicates inactive worms with a limp, curled or curved morphology; A score of '7' indicates dead/paralyzed worms after 72 hours
Summary of the method: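 Scoring is by larval movement: dead or paralyzed worms count as positive, and a "7" means dead/paralyzed at 72 hours. Freshly hatched root-knot larvae (50-65 per well) in buffered S Medium were incubated with compounds under plate sealers for 20-24 h before the first read.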

[7] = test system: Spodoptera eridania, eggs-southern armyworm (SAW-Eggs); experiment: Southern armyworm eggs (SAW-Eggs) treated diet test; set-up: key: 0 = no effect; 1 = 10-25% kill; 2 = 26-35% kill; 3 = 36-45% kill; 4 = 46-55% kill; 5 = 56-65% kill; 6 = 66-75% kill; 7 = 76-85% kill; 8 = 86-99% kill; 9 = 100% kill; conditions: mortality after 7 days
Summary of the method: as §1

[8] = test system: Aphis gossypii, cotton aphid (CA); experiment: Cotton aphid (CA) cotyledon dip test; set-up: key: 0 = no effect; 1 = 10-25% kill; 2 = 26-35% kill; 3 = 36-45% kill; 4 = 46-55% kill; 5 = 56-65% kill; 6 = 66-75% kill; 7 = 76-85% kill; 8 = 86-99% kill; 9 = 100% kill; conditions: mortality after 5 days
Summary of the method: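 Mortality was scored 5 days after dipping aphid-infested cotyledons, colonised overnight from a transfer leaf, into water dilutions of a 35% acetone/water compound solution.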

| SMILES | SAW (300 ppm) rating [1] | TSM (300 ppm) rating [2] | SCR Eggs (1000 ppm) rating [3] | WCR (50 ppm) rating [4] | Rating Against C. elegans (150 ppm) [5] | M. incognita (150 ppm) score [6] | SAW Eggs (300 ppm) rating [7] | CA (300 ppm) rating [8] |
| --- | --- | --- | --- | --- | --- | --- | --- | --- |
| C=CCSC(C[N+](=O)[O-])c1ccc(OC)cc1 (stereo not shown) [Example 54] | 0 | 0 | 0 | 5 (5 = 56-65% kill) | 9 | 9 | 0 | 0 |
| CCOC(=O)CSC(C[N+](=O)[O-])c1cccc(C#N)c1 (racemic) [Example 99] | 0 | 0 | 0 | 0 | 0 | 0 | 0 | 0 |
| CCOC(=O)CSC(C[N+](=O)[O-])c1cccnc1 (stereo not shown) [Example 172] | 0 | 0 | 0 | 0 | 8 | 9 | 0 | 0 |
| COC(=O)CSC(C[N+](=O)[O-])c1cccc(C#N)c1 (racemic) [Example 98] | 5 (5 = 56-65% kill) | 3 (3 = 36-45% kill) | 0 | 0 | 8 | 0 | 0 | 0 |
| CCOC(=O)CSC(C[N+](=O)[O-])c1ccc(OC)cc1 (stereo not shown) [Example 48] | 0 | 0 | 0 | 0 | 9 | 9 | 0 | 0 |
| COc1cccc(C(C[N+](=O)[O-])SCC(=O)OCc2ccccc2)c1 (racemic) [Example 107] | 0 | 0 | 0 | 0 | 0 | 0 | 0 | 0 |
| O=C(O)CSC(C[N+](=O)[O-])c1c(Cl)cccc1Cl (stereo not shown) [Example 130] | 0 | 0 | 0 | 3 (3 = 36-45% kill) | 9 | 9 | 0 | 0 |
| COC(=O)CSC(C[N+](=O)[O-])c1cccnc1 (stereo not shown) [Example 171] | 0 | 0 | 0 | 0 | 7 | 9 | 0 | 0 |
| CCCOC(=O)CSC(C[N+](=O)[O-])c1ccc(OC(F)(F)F)cc1 (racemic) [Example 119] | 0 | 3 (3 = 36-45% kill) | 0 | 0 | 8 | 9 | 9 (9 = 100% kill) | 0 |
| O=C(O)CSC(C[N+](=O)[O-])c1ccc(OC(F)(F)F)cc1 (stereo not shown) [Example 127] | 0 | 0 | 0 | 0 | 9 | 9 | 0 | 0 |
| C=CCSC(C[N+](=O)[O-])c1cccnc1 (stereo not shown) [Example 176] | 0 | 0 | 0 | 0 | 0 | 9 | 0 | 0 |
| CCCCOC(=O)CSC(C[N+](=O)[O-])c1cccc(C#N)c1 (racemic) [Example 101] | 0 | 0 | 0 | 0 | 0 | 9 | 0 | 0 |
| COc1ccc(C(C[N+](=O)[O-])SCC(=O)OCCCCCC(C)C)cc1 (stereo not shown) [Example 50] | 0 | 0 | 0 | 0 | 7 | 0 | 9 (9 = 100% kill) | 0 |
| COC(=O)CSC(C[N+](=O)[O-])c1ccc(OC(F)(F)F)cc1 (racemic) [Example 117] | 0 | 0 | 0 | 0 | 8 | 0 | 0 | 0 |
| O=C(CSC(C[N+](=O)[O-])c1c(Cl)cccc1Cl)OCc1ccccc1 (stereo not shown) [Example 135] | 0 | 0 | 9 (9 = 100% kill) | 0 | 0 | 0 | 0 | 0 |
| CCOC(=O)CSC(C[N+](=O)[O-])c1ccc2c(c1)OCO2 (stereo not shown) [Example 19] | 0 | 0 | 0 | 3 (3 = 36-45% kill) | 9 | 9 | 0 | 0 |
| CCCOC(=O)CSC(C[N+](=O)[O-])c1ccc(OC)cc1 (racemic) [Example 102] | 0 | 0 | 0 | 0 | 9 | 9 | 0 | 0 |
| CCCOC(=O)CSC(C[N+](=O)[O-])c1cccc(OC)c1 (racemic) [Example 103] | 0 | 4 (4 = 46-55% kill) | 0 | 0 | 8 | 9 | 0 | 0 |
| COC(=O)CSC(C[N+](=O)[O-])c1cccc(OC)c1 (stereo not shown) [Example 55] | 4 (4 = 46-55% kill) | 0 | 0 | 0 | 8 | 9 | 0 | 0 |
| CCCOC(=O)CSC(C[N+](=O)[O-])c1cccnc1 (stereo not shown) [Example 178] | 0 | 0 | 0 | 0 | 0 | 9 | 0 | 0 |
